In assay [1] the test system is cells. The assay is described as follows: cell-penetration of LNPs and intracellular delivery of mRNA. The format is cell-based. Conditions: LNPs containing the compound as ionizable lipid; compared to a similar composition comprising Dlin-MC3-DMA. As to the method:
The inventors determined cell-penetration of the exemplary LNPs and intracellular delivery of mRNA.
More specifically, particles were incubated on cells for 16-24 hrs at 37° C. under 5% CO2 and expression levels were measured. Formulations were compared to Lipofectamine control and to MC3 control, as well as to untreated controls.

The test system of assay [2] is BALB/c mouse. The assay is described as follows: in vivo expression distribution of encapsulated mRNA F-LUC (IVIS imaging, ex-vivo tissue analysis). Conditions: intravenous, 13 μg/mouse. The procedure: (§1) The inventors determined the expression distribution of the exemplary LNPs in vivo by assessing expression of the encapsulated mRNA (mRNA F-LUC). The LNPS of the invention encapsulating mRNA F-LUC have been injected intravenously into a BALB/c mouse, at a dosage of 13 μg/mouse (0.52-0.65 mg/kg). In-vivo imaging were done by IVIS imaging. Ex-vivo tissue analysis was done for lung, heart, spleen, kidney, and liver using IVIS. Histology assessment was determined by H&E staining with pathologist report for toxicity. Histology assessment concluded normal morphology without any treatment related pathological changes.
as §1, with “LNPs” for “LNPS”

Assay [3] concerns lung cells. The assay is described as follows: cell-based studies of specificity to lung cells. As to conditions: LNPs containing the compound as ionizable lipid; compared to a similar composition comprising Dlin-MC3-DMA.

SMILES strings stand for the structures.

As for `CCCCCCCCCOCC(O)CN(CCN(CC(O)COCCCCCCCCC)CC(O)COCCCCCCCCC)CC(O)COCCCCCCCCC` (centres unmarked) [MB-77], in assay [1], the internalization efficiency entry is “superior internalization efficiency”.

With `CCCCCCCCCCCCOCC(O)CN(CCCCCCCCN(CC(O)COCCCCCCCCCCCC)CC(O)COCCCCCCCCCCCC)CC(O)COCCCCCCCCCC` (centres unmarked) [MB-205], the internalization efficiency entry in assay [1] is given as “superior internalization efficiency”.

As to `CCCCCCCCOCC(O)CN(CCCCN(CC(O)COCCCCCCCC)CC(O)COCCCCCCCC)CC(O)COCCCCCCCC` (centres unmarked) [MB-208], the internalization efficiency result in assay [1] was “superior internalization efficiency”.

For the molecule `CCCCCCCCOCC(O)CN(CCOCCOCCN(CC(O)COCCCCCCCC)CC(O)COCCCCCCCC)CC(O)COCCCCCCCC` (centres unmarked) [MB-212], in assay [2], the “lung specificity of the LNP” value is on record as “enhanced lung specificity”. Further, the “specificity to the lung cells” value in assay [3] is recorded as “enhanced specificity to the lung cells”. For the same molecule, the internalization efficiency result in assay [1] is on record as “superior internalization efficiency”.

Turning to `CCCCCCCCOCC(O)CN(CCCCCCCCN(CC(O)COCCCCCCCC)CC(O)COCCCCCCCC)CC(O)COCCCCCCCC` (centres unmarked) [MB-222], the “lung specificity of the LNP” value in assay [2] is listed as “enhanced lung specificity”. For the same molecule, the “specificity to the lung cells” value in assay [3] is on record as “enhanced specificity to the lung cells”.

Values taken from patent US20250352488A1, “IONIZABLE LIPIDS AND NANOPARTICLES COMPRISING SAME” (MANA BIO LTD., priority 2022, published 2025).
